Test systems include Hs-578T; NCI-H226; HL-60; MCF7; RPMI-8226; A549; HOP-92; 786-0; SNB-75; UACC-62; SR; SK-MEL-28; SN12C; U-251; NCI-H460; SW-620; DU-145; K562; CCRF-CEM; CAKI-1.
Holding throughout (experiment): NCI anticancer screen, dose series, 48 h

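In this assay, cells in 96-well plates receive the compound at five concentrations for 48 hours. Endpoints are linearly interpolated between the surrounding concentrations. GI50 marks 50% less growth.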 Active and inactive are the calls of the source. Cut-off read from the data, not from the text of the source: active = GI50 up to about 1.1 µM and inactive = higher. Bounds are passed on as bounds.

Regarding `CC[C@@H](C)[C@H]([C@H](CC(=O)N1CCC[C@@H]1[C@@H](OC)[C@H](C)C(=O)N[C@H](Cc1ccccc1)c1nccs1)OC)N(C)C(=O)[C@H](NC(=O)[C@@H](C(C)C)N(C)C)C(C)C`, the GI50 with Hs-578T was < 10 nM (active); with NCI-H226, 0.153 nM (active); with HL-60, 0.0351 nM (active); in the experiment with MCF7, < 10 nM (active); in the experiment on RPMI-8226, 0.143 nM (active); in the experiment with A549, 0.121 nM (active). The GI50 in the experiment on HOP-92 is 1.04 nM (active); in the experiment on 786-0, 0.184 nM (active); with SNB-75, 0.161 nM (active); in the experiment with UACC-62, 0.175 nM (active); in the experiment on SR it was 0.0275 nM (active); in the experiment with SK-MEL-28, 0.69 nM (active). Moreover, the GI50 was 0.486 nM (active) in the experiment on SN12C; 0.249 nM (active) with U-251; 0.059 nM (active) in the experiment with NCI-H460; 0.0912 nM (active) with SW-620; < 10 nM (active) with DU-145; 0.0693 nM (active) in the experiment with K562.

On to `CC(C)(C)c1cc(CC2C(=O)c3ccccc3C2=O)cc(C(C)(C)C)c1O`, for which the GI50 in the experiment with Hs-578T is 3940 nM (inactive); in the experiment with HL-60 it was 2540 nM (inactive); in the experiment with MCF7, 3660 nM (inactive); in the experiment on RPMI-8226, 764 nM (active); in the experiment on CCRF-CEM, 4040 nM (inactive); with A549, 8590 nM (inactive). In addition, the GI50 in the experiment on CAKI-1 is 3220 nM (inactive); in the experiment with HOP-92, 272 nM (active); in the experiment on 786-0 it was 3900 nM (inactive); in the experiment on UACC-62, 3580 nM (inactive); with SR it was 2880 nM (inactive); with SN12C it was 4110 nM (inactive). Also, the GI50 was 3870 nM (inactive) with U-251; 4480 nM (inactive) in the experiment with NCI-H460; 2510 nM (inactive) in the experiment with SW-620; 2450 nM (inactive) in the experiment on DU-145; 3130 nM (inactive) in the experiment on K562.

Turning to `O=C1c2scnc2-c2nccc3c2c1nc1ccccc13` [KUANONIAMINE A], the GI50 in the experiment on Hs-578T was 1800 nM (inactive); in the experiment on NCI-H226, 1440 nM (inactive); in the experiment on MCF7, 299 nM (active); with RPMI-8226, 1370 nM (inactive); with CCRF-CEM, 416 nM (active); in the experiment with A549, 1510 nM (inactive). Also, the GI50 with CAKI-1 was 1630 nM (inactive); with HOP-92, 1880 nM (inactive); in the experiment with 786-0, 1210 nM (inactive); in the experiment on SNB-75, 940 nM (active); in the experiment with UACC-62, 380 nM (active); in the experiment with SR it was 137 nM (active). The GI50 with SK-MEL-28 was 1650 nM (inactive); in the experiment on SN12C it was 1400 nM (inactive); in the experiment with U-251 it was 268 nM (active); in the experiment with NCI-H460, 372 nM (active); in the experiment on SW-620, 288 nM (active); with DU-145, 1600 nM (inactive). The GI50 in the experiment with K562 was 682 nM (active).

On to `OC/C=C/[C@H](OCc1ccccc1)[C@H](/C=C/CO)OCc1ccccc1`, for which the GI50 with Hs-578T is 47400 nM (inactive); in the experiment on NCI-H226, > 100000 nM (inactive); in the experiment on MCF7, 33100 nM (inactive); in the experiment on RPMI-8226 it was 23100 nM (inactive); with CCRF-CEM it was 20100 nM (inactive); in the experiment on A549 it was 30300 nM (inactive). Further, the GI50 in the experiment on CAKI-1 was > 100000 nM (inactive); in the experiment with HOP-92, 45400 nM (inactive); with 786-0, 44900 nM (inactive); in the experiment with SNB-75, 32700 nM (inactive); in the experiment on UACC-62, 80000 nM (inactive); in the experiment on SR it was 18800 nM (inactive). Moreover, the GI50 with SK-MEL-28 was 35800 nM (inactive); with SN12C, 47800 nM (inactive); in the experiment with U-251, 24500 nM (inactive); in the experiment with NCI-H460, 57800 nM (inactive); with SW-620, 39900 nM (inactive); in the experiment with DU-145, 81100 nM (inactive). In the experiment with K562, the GI50 is 24800 nM (inactive).

The record behind these values is ChEMBL document CHEMBL1201862, “PubChem BioAssay data set” (2004).
